Active and inactive are the calls of the source.
What was measured:
[1] = target: T1, Histone-lysine N-methyltransferase NSD2 (Homo sapiens, UniProt O96028); type: biochemical
T1 sequence (O96028 whole entry): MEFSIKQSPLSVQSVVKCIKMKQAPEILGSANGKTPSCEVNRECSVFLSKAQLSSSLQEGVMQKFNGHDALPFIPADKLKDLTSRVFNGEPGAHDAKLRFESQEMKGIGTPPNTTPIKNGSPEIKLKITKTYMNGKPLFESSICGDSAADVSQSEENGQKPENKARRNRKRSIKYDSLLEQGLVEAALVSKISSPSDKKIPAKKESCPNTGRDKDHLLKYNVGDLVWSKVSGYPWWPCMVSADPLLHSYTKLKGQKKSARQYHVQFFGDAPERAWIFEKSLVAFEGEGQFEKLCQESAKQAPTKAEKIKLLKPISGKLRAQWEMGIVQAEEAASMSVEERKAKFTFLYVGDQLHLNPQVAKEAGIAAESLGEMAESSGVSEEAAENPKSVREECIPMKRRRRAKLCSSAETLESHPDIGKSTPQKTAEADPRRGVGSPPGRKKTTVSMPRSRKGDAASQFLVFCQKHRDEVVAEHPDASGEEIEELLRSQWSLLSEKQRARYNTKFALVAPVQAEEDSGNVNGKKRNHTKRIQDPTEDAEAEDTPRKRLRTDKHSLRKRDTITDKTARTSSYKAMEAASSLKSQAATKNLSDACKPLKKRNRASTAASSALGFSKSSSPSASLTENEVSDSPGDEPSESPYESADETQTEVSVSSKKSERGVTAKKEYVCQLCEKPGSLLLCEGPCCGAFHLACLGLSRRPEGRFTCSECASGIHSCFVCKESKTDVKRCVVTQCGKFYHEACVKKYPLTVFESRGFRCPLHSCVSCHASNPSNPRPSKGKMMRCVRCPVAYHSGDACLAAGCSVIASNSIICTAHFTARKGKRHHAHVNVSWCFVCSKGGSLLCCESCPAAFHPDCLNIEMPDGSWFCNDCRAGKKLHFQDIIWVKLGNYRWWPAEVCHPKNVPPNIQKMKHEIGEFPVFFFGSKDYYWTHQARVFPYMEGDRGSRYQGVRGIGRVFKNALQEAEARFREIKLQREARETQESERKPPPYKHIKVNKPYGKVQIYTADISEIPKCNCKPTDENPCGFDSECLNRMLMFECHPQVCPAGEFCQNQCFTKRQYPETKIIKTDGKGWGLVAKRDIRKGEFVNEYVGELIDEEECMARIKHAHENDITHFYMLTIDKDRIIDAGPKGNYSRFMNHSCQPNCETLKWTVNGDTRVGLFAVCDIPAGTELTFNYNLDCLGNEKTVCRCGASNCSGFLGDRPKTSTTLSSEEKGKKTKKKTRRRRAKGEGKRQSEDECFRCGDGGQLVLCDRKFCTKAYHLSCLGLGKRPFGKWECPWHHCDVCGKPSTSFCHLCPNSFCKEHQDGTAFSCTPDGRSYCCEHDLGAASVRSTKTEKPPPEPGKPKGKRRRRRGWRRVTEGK

[2] = inhibition of ARNT PAS-B/TACC3 complex formation – biochemical, AlphaScreen, cherry-picked samples, confirmation (AID 651703); type: functional, Homo sapiens;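 further: His-tagged ARNT PAS-B domain paired with GST-TACC3 E629A dimer coactivator fragment; potency of inhibitors that break up the complex and lower AlphaScreen signal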
Fatty acid synthase [3] = target: T2, Fatty acid synthase (Homo sapiens, UniProt P49327); assay: inhibition of human FAS-TE enzyme activity – biochemical, kinetic fluorescence intensity, dose response (AID 624326); type: functional;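 further: rate of fluorescence rise from hydrolysis of a fluorogenic O-methyl fluorescein ester substrate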
T2 sequence (P49327 whole entry): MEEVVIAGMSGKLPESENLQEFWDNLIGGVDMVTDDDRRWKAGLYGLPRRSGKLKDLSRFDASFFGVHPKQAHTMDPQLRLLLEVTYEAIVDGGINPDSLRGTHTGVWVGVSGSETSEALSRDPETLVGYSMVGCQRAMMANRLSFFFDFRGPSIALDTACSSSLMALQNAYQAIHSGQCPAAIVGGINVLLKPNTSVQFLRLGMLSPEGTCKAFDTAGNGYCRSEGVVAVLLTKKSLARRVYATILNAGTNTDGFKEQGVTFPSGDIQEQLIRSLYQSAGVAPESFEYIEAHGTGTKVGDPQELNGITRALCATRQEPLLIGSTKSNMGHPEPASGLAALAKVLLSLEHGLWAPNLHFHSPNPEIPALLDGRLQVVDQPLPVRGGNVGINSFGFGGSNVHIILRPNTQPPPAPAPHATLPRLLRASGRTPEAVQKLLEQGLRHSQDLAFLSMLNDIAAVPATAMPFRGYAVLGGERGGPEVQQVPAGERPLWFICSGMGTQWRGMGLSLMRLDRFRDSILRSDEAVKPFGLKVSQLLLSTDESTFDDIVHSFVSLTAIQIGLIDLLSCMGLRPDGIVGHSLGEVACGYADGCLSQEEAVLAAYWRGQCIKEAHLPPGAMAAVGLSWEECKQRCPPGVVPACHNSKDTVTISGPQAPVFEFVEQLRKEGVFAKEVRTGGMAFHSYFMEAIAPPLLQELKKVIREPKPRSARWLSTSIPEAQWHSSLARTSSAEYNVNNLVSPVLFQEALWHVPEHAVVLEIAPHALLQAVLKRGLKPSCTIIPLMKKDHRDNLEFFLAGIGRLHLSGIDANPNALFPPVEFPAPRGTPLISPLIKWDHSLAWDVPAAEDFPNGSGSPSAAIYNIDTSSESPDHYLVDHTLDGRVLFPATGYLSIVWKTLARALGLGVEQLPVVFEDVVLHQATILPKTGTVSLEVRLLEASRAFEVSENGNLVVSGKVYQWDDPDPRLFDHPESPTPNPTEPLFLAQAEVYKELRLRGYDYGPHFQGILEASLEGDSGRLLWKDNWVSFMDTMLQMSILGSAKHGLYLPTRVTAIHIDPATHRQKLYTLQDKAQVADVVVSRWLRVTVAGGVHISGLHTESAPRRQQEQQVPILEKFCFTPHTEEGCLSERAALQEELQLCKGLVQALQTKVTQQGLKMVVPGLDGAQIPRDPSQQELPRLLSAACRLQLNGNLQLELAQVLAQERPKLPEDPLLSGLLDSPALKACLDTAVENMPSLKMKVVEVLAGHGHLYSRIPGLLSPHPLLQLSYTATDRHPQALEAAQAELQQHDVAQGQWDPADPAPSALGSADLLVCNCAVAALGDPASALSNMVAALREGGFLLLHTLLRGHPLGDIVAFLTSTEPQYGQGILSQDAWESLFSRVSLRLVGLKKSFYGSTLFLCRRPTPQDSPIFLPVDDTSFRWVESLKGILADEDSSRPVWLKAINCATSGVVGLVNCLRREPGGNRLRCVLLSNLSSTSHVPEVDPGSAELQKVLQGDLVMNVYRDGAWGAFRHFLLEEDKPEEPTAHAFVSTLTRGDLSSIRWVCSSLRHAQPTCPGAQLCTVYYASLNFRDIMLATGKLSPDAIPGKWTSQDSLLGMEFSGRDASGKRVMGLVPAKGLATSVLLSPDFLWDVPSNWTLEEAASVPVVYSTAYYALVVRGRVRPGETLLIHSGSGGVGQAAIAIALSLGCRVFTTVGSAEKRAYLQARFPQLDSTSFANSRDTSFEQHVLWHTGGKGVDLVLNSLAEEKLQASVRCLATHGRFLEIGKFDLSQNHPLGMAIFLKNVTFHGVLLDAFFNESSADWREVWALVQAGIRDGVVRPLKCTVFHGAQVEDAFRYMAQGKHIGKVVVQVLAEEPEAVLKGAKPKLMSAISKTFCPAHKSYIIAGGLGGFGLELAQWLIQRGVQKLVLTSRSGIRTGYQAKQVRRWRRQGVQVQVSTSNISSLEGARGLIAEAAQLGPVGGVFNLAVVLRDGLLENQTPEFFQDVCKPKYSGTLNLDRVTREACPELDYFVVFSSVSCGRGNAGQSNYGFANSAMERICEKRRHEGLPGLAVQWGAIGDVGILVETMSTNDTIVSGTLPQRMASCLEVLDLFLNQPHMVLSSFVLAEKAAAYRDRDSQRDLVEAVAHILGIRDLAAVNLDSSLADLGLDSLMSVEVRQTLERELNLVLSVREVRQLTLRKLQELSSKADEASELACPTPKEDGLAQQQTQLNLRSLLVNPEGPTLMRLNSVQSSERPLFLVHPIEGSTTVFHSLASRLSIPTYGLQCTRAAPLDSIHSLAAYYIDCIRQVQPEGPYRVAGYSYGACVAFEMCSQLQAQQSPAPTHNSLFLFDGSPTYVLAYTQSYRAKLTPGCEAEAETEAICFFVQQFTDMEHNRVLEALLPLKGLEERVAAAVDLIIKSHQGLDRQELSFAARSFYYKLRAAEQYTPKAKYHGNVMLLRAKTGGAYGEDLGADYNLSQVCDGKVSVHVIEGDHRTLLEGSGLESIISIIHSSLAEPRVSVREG

[4] = target: T3, Small ubiquitin-related modifier 1 (Homo sapiens, UniProt P63165); assay: SUMO1 protein-protein binding blockers, potency – biochemical, FRET, dose response (AID 624383); type: functional; settings: read-out: IC50_Mean
T3 sequence (P63165 whole entry): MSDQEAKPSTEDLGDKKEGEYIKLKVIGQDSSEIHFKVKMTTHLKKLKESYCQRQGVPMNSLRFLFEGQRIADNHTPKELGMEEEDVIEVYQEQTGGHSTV

[5] = target: T3, Small ubiquitin-related modifier 1; assay: SUMO1 protein interaction blockers, potency – biochemical, fluorescence polarization, uHTS hits, dose response (AID 624382); type: functional; settings: read-out: IC50_Mean
Caspase-6 = target: T4, Caspase-6 (Homo sapiens, UniProt P55212); assay: inhibition of CASP6 peptide cleavage – biochemical, VEID-R110 fluorescence, cherry-pick, dose response (AID 720632)
T4 sequence (P55212 whole entry): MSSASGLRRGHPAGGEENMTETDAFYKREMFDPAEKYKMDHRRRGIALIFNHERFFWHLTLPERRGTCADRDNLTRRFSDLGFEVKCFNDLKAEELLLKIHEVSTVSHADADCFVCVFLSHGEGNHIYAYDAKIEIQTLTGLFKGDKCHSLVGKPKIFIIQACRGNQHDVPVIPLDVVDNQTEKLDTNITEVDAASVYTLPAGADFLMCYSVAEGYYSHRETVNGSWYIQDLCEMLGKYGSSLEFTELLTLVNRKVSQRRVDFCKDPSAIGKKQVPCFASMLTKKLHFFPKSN

Fatty acid synthase [6] = target: T2, Fatty acid synthase; assay: inhibition of human FAS-TE enzyme activity – biochemical, endpoint fluorescence intensity, uHTS hits, dose response (AID 624327); type: functional;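 further: fluorescence from hydrolysis of an O-methyl fluorescein acyl ester substrate by the enzyme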
cells [7] = type: functional, cell-based
cells [8] = type: functional, cell-based; remark: listed apart in the source
[9] = target: Arf-GAP with SH3 domain, ANK repeat and PH domain-containing protein 1 (Homo sapiens, UniProt Q9ULH1); type: functional;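 further: biochemical fluorescence polarization dose–response screen measuring inhibition of ASAP1; ASAP1 GAP domain stimulating GTP hydrolysis by truncated human ARF1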
Sequence of Arf-GAP with SH3 domain, ANK repeat and PH domain-containing protein 1 (Q9ULH1 whole entry, the tested form may be a part): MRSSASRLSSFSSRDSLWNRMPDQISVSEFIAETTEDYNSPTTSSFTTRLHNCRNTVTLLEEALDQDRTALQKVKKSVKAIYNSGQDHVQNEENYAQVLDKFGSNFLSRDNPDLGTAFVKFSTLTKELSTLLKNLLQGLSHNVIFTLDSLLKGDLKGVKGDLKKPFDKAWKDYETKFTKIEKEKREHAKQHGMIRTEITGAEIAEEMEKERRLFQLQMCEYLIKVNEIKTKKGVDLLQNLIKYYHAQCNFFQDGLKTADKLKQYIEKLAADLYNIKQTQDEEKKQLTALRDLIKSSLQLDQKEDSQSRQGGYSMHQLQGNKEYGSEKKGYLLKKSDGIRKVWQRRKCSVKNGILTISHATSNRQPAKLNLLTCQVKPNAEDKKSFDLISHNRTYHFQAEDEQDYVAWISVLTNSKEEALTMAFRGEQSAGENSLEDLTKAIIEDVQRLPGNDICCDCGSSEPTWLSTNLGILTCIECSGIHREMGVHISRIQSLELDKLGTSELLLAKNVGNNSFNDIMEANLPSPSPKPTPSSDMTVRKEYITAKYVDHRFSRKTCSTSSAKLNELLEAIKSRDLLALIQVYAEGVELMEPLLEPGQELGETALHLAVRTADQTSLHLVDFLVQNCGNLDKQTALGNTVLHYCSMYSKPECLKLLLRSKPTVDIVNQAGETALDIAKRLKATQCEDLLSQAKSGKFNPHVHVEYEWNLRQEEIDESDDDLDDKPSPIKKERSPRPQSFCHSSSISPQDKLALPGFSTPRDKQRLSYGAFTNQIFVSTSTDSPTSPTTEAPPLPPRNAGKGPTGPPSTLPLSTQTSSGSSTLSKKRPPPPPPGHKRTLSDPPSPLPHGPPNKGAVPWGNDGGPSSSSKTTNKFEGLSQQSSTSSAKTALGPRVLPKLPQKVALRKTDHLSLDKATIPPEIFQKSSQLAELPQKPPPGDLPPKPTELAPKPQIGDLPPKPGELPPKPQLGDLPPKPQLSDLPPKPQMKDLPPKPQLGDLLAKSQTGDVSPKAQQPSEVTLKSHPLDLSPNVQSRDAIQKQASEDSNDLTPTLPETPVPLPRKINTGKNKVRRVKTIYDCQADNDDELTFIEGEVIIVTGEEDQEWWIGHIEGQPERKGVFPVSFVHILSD

[10] = target: ADP-ribosylation factor GTPase-activating protein 1 (Rattus norvegicus, UniProt Q62848); assay: Fluorescence polarization-based biochemical high throughput dose response screening assay to identify inhibitors of ADP-ribosylation factor GTPase activating protein 1 (ARFGAP1).; type: functional
Sequence of ADP-ribosylation factor GTPase-activating protein 1 (Q62848 whole entry): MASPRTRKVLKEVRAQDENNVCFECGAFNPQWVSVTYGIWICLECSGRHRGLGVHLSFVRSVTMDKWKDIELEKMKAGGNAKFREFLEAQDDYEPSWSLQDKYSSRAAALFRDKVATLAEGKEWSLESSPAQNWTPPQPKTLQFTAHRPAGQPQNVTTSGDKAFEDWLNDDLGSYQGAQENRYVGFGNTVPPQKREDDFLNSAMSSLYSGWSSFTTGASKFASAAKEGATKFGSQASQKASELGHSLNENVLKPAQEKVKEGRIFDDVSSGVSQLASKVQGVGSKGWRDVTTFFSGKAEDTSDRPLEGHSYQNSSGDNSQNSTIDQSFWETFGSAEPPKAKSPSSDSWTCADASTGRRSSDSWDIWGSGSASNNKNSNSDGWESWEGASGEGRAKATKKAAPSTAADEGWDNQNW

Beta-galactosidase = Beta-galactosidase (Escherichia coli, UniProt Q8VNN2); assay: Dose response counterscreen for EBI2 assay utilizing the enzyme, b-galactosidase.; type: functional
HEK293 [11] = assay: cells; type: functional, cell-based; settings: Homo sapiens
[12] = Trypanosoma cruzi growth suppression in host cells – NIH3T3 host cells, beta-gal luminescence, confirmation (AID 2044); type: functional, cell-based;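 further: intracellular parasites grown in NIH/3T3 mouse fibroblasts as host cells; luminescent beta-galactosidase reporter signal from transgenic T. cruzi replicating inside host cells; inhibitors lower the luminescence signal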
HEK293 [13] = assay: inhibition of NOD1-driven NF-kB reporter – cell-based, luminescence, uHTS, primary screen (AID 1578); type: functional; settings: Homo sapiens
[14] = target: T5, Methionyl-tRNA synthetase, putative (Trypanosoma brucei brucei, UniProt Q38C91); type: functional, Trypanosoma brucei brucei strain 927/4 GUTat10.1
T5 sequence (Q38C91 whole entry): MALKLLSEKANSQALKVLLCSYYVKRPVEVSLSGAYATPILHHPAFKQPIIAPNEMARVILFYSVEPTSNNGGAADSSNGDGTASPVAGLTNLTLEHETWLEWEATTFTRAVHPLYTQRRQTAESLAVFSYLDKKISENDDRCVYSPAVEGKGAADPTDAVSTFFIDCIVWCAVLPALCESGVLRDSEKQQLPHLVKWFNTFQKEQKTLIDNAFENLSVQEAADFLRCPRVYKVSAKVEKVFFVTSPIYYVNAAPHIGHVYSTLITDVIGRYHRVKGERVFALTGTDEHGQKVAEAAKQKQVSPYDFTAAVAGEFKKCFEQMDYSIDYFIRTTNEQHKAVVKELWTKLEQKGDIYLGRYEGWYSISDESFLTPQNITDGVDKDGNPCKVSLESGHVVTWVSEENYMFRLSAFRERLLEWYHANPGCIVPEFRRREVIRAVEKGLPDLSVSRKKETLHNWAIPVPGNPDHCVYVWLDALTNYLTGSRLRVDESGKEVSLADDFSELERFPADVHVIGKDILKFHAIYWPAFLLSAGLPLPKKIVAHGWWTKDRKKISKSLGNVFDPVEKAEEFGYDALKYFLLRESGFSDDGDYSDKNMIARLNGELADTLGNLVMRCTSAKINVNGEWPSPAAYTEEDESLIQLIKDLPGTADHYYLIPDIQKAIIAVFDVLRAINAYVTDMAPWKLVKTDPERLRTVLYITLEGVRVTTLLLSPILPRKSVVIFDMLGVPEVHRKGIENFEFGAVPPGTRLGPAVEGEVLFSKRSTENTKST

[15] = target: T5, Methionyl-tRNA synthetase, putative; type: functional, Trypanosoma brucei brucei strain 927/4 GUTat10.1; remark: listed apart in the source
[16] = NIH3T3 cell viability loss – ATP luminescence, mouse fibroblasts, counter-screen, dose response (AID 2010); type: functional, cell-based;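 further: cells exposed to compound for about 90 hours before reading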
HEK293 [17] = assay: cells; type: functional, cell-based; settings: Homo sapiens; remark: listed apart in the source
HEK293 [18] = assay: NOD2 signaling inhibitors in MDP-stimulated cells, cell-based, uHTS, luminescence (AID 2001); type: functional; settings: Homo sapiens
[19] = Counterscreen for inhibitors of Trypanosoma brucei methionyl tRNA synthetase (MetRS): Luminescence-based cell-based high throughput dose response assay to identify compounds that are cytotoxic to Jurkat human T lymphocyte cells.; type: functional
[20] = target: SWI/SNF-related matrix-associated actin-dependent regulator of chromatin subfamily A member 2 (Homo sapiens, UniProt P51531); assay: Luminescence-based cell-based high throughput dose response assay to identify activators of the function of SWI/SNF related, matrix associated, actin dependent regulator of chromatin, subfamily a, member 2 (SMARCA2, BRM).; type: functional
[21] = target: T6, Microphthalmia-associated transcription factor (Homo sapiens, UniProt O75030); assay: reducers of TRPM1 reporter luminescence, concentration series – cell-based, SK-MEL-5, cherry-picked, set 3, MITF inhibitor project, dose response (AID 493073); type: functional;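 further: SK-MEL-5 melanoma cells with luciferase driven by the MITF target TRPM1 promoter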
T6 sequence (O75030 whole entry): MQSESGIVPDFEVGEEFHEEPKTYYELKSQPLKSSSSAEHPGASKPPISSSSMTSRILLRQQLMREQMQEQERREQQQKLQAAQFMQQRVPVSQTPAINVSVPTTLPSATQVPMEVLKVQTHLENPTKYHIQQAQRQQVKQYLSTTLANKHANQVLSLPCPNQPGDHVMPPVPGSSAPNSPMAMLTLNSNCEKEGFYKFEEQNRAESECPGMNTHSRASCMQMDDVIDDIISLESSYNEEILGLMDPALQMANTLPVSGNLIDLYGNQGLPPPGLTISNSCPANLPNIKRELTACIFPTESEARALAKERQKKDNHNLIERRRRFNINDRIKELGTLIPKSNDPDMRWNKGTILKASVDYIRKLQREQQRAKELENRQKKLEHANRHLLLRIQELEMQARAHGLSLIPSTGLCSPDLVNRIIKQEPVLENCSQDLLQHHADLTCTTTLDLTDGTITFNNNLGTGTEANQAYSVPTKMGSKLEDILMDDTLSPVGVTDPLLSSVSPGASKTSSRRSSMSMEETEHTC

[22] = Counterscreen for activators of the function of SWI/SNF related, matrix associated, actin dependent regulator of chromatin, subfamily a, member 2 (SMARCA2, BRM): Luminescence-based cell-based high throughput dose response assay to identify non-selective compounds using the VP16 reporter assay.; type: functional
[23] = activation of miR-122 Renilla sensor silencing – cell-based, Huh7 psiCHECK-miR122, Renilla luciferase, cherry-picked, dose response (AID 651956); type: functional;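 further: huh7 hepatoma cells stably carrying a psiCHECK-2 miR-122 sensor plasmid; renilla luciferase signal reporting endogenous miR-122 activity after 48 h compound exposure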
[24] = target: 26S proteasome non-ATPase regulatory subunit 14 (Homo sapiens, UniProt O00487); assay: inhibition of proteasome subunit RPN11 – biochemical, fluorescence polarization, uHTS hits, confirmation (AID 602368); type: functional
[25] = target: 72 kDa type IV collagenase (Homo sapiens, UniProt P08253); assay: Dose Response validation of uHTS RPN11 inhibitor hits using a MMP-2 Fluorescence assay.; type: functional
Sequence of 72 kDa type IV collagenase (P08253 whole entry): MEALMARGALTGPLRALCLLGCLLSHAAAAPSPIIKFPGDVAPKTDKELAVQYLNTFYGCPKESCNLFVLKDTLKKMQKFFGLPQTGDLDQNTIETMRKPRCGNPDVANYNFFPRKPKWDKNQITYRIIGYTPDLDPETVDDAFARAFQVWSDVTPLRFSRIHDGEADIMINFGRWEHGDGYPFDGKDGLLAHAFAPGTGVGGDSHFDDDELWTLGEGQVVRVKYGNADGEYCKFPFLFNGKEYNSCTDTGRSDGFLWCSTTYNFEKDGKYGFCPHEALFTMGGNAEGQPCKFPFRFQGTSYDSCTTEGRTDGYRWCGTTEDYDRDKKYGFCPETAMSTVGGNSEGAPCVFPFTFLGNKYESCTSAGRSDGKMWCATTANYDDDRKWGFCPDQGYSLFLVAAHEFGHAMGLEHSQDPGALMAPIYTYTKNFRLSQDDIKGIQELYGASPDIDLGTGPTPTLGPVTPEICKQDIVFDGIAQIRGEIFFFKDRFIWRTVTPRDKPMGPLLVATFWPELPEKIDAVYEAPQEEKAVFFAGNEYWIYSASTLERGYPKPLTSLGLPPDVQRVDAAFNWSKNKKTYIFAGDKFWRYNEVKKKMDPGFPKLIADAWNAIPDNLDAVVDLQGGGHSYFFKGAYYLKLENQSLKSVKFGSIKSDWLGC

[26] = viability of HCT116 lacking mutant beta-catenin – cell-based, human colon tumor, dose response (AID 1045); type: functional;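 further: HCT116 colon tumor cells with beta catenin knocked out; cells exposed to compound for 60 hours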
[27] = viability of PTEN-deleted HCT116 cells – cell-based, HCT116 PTEN knockout, dose response (AID 1047); type: functional;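 further: HCT116 colon tumor cells with PTEN knocked out; cells exposed to compound for 60 hours before readout; potency for loss of cell viability measured by luminescence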
Prothrombin = Prothrombin (Bos taurus, UniProt P00735); assay: thrombin protease inhibitors – biochemical, fluorescence polarization, uHTS hits, dose response (AID 602369); type: functional

## N#Cc1cc2ccc(N3CCOCC3)cc2cc1C#N
[1]
  AC50: 3.05 µM (active)
[2]
  AC50: 116 µM (active)
Fatty acid synthase [3]
  IC50: 4.31 µM (active)
[4]
  IC50: 100 µM (inactive)
[5]
  IC50: > 66.6 µM (inactive)
Caspase-6
  AC50: 29.9 µM (active)
Fatty acid synthase [6]
  IC50: 5.9 µM (active)

## Cc1ccc2nc(SCC(=O)N3CCCCCC3)nc(=O)n2c1
Cells [7]
  EC50: > 350 µM (not active)
Cells [8]
  EC50: > 350 µM (not active)
[9]
  IC50: 30.7 µM (inactive)
[10]
  IC50: 23.1 µM (inactive)

## CCOC(=O)C1CCN(C(=O)c2cc3c(ccc4ccccc43)o2)CC1
Beta-galactosidase
  IC50: > 80 µM (inactive)

## COc1ccccc1NS(=O)(=O)c1cccc(NC(=O)Nc2ccc(Cl)cc2)c1
HEK293 [11]
  IC50: 7.01 µM (active)
[12]
  EC50: 1.8 µM (active)
HEK293 [13]
  EC50: > 20 µM (inactive)
[14]
  IC50: 5.53 µM (active)
[15]
  IC50: 39.5 µM (inactive)
[16]
  EC50: > 60 µM (not active)
HEK293 [17]
  IC50: 6.59 µM (active)
HEK293 [18]
  IC50: 5.81 µM (inactive)
[19]
  IC50: 65.3 µM (inactive)

## CCN1CCN(c2ccc(S(=O)(=O)N3CCCCC3)cc2NC(=O)/C=C/c2ccc([N+](=O)[O-])cc2)CC1
[20]
  EC50: > 91.2 µM (inactive)
[21]
  AC50: 7.51 µM (active)
[22]
  EC50: > 91.2 µM (inactive)

## COc1ccc(C#Cc2ccc3c(c2)O[C@H](CN(C)C(=O)CN2CCOCC2)[C@H](C)CN([C@@H](C)CO)S3(=O)=O)cc1
[23]
  AC50: 29.9 µM (active)

## N#Cc1ccc(CSc2nnc(Nc3ccccc3)s2)cc1
[14]
  IC50: 7.66 µM (active)
[15]
  IC50: 119 µM (inactive)
[19]
  IC50: 83.3 µM (inactive)

## Nc1nc(SCc2ccc(Cl)cc2Cl)nc2nc3c(cc12)CCCC3
[24]
  IC50: 41.4 µM (active)
[25]
  IC50: > 100 µM (inactive)
[26]
  EC50: 13.3 µM (active)
[9]
  IC50: 17.7 µM (inactive)
[27]
  EC50: 14.4 µM (active)
[10]
  IC50: 23.8 µM (inactive)
Prothrombin
  IC50: 39.2 µM (active)

## N#C/C(=N/Nc1ccccc1F)C(=N)N1CCOCC1
[20]
  EC50: > 91.2 µM (inactive)
[22]
  EC50: > 91.2 µM (inactive)

Source: ChEMBL document CHEMBL1201862, “PubChem BioAssay data set” (2004)
